For one data set, the system named is Human Erythrocytes. Briefly: Hemolysis assay using human erythrocytes. The data set is classed as cell-based. To be noted: hemolysis after 2 h. As to the method: FIG. 1. Hemolytic activity of (−)-agelastatins A-F and advanced intermediates. Compounds were tested at 333 μM and hemolysis was evaluated after 2 h. DMSO and water served as the negative and positive controls for hemolysis, respectively. Error bars represent standard deviation of the mean, n=3.
To prepare the erythrocytes, 0.1 mL of human blood was centrifuged (10,000 g, 2 min). The pellet was washed three times with saline (0.9% NaCl) via gentle resuspension and centrifugation (10,000 g, 2 min). Following the final wash, the erythrocytes were resuspended in 0.4 mL red blood cell (RBC) buffer (10 mM Na2HPO4, 150 mM NaCl, 1 mM MgCl2, pH 7.4).
DMSO stocks of compounds were added to 0.5 mL tubes in singlicate (1 μL, 3.3% DMSO final). The stocks were diluted with 19 μL RBC buffer. Positive control tubes contained DMSO in water, and negative control tubes contained DMSO in RBC buffer. A suspension of washed erythrocytes (10 μL) was added to each tube, and samples were incubated at 37° C. for 2 hours. Samples were centrifuged (10,000 g, 2 min), and the supernatant was transferred to a clear, sterile 384-well plate. The absorbance of the supernatants was measured at λ=540 nm, and percent hemolysis was calculated relative to the average absorbance values measured for the controls.

A further data set relates to HL-60. Briefly: 48-hour IC50 by MTS, HL-60 acute promyelocytic leukemia cells. The format is cell-based, human. As to the method:
(§1) Cells were grown in media supplemented with fetal bovine serum (FBS) and antibiotics (100 μg/mL penicillin and 100 U/mL streptomycin). […] Cells were incubated at 37° C. in a 5% CO2, 95% humidity atmosphere.
(§2) In a 96-well plate, compounds were pre-added as DMSO stocks (1% final) in triplicate to achieve final concentrations of 1 nM to 10 μM on a half log scale. DMSO and cell-free wells served as the live and dead control, respectively. […] IC50 values were determined from three or more independent experiments using TableCurve (San Jose, Calif.).

The next data set concerns Daudi. Briefly: 48-hour IC50 by MTS, Daudi Burkitt's lymphoma cells. The format is cell-based, human. As to the method: as §1, §2
Data set [1] has as its system human cell lines (U-937, HeLa, A549, BT549, IMR90). Briefly: Ability to induce cell death in the panel of five human cell lines (Table 3). The format is cell-based. As to conditions: 48-hour exposure, 1 nM to 10 μM, cell lines of Table 3. On the procedure: Six (−)-agelastatins along with eight closely related derivatives prepared in the above examples were tested (Table 3). The six (−)-agelastatin alkaloids (1-6, respectively), (−)-O-methyl-di-epi-agelastatin A (50), (−)-dehydroagelastatin A (51), (−)-di-epi-agelastatin C (52), (+)-O-methyl-pre-agelastatin A and D (39 and 53, respectively), along with bicyclic pyrroles (+)-44, (+)-45, and triazone (+)-48 were tested for their ability to induce cell death in four human cancer cell lines (U-937, lymphoma; HeLa, cervical carcinoma; A549, non-small cell lung carcinoma; and BT549, breast carcinoma) and one immortalized normal human cell line (IMR90, lung fibroblasts) after a 48-hour exposure. […] Furthermore, enhanced activities in U-937 (20×) cell relative to the other cell lines (Table 3) were observed.
Adherent cells (HeLa, A549, BT549, and IMR90) were added into 96-well plates (5,000 cells/well for HeLa cell line; 2,000 cells/well for A549, BT549, and IMR90 cell lines) in 100 μL media and were allowed to adhere for 2-3 hours. Compounds were solubilized in DMSO as 100× stocks, added directly to the cells (100 μL final volume), and tested over a range of concentrations (1 nM to 10 μM) in triplicate (1% DMSO final) on a half-log scale. DMSO and cell-free wells served as the live and dead control, respectively. After 48 h of continuous exposure, the plates were evaluated using the SRB colorimetric assay as described previously (V. Vichai, K. Kirtikara, Nature Prot., 2006, 1, 1112). Briefly, media was removed from the plate, and cells were fixed by the addition of 100 μL cold 10% trichloroacetic acid in water. After incubating at 4° C. for 1 h, the plates were washed in water and allowed to dry. Sulforhordamine B was added as a 0.057% solution in 1% acetic acid (100 μL), and the plates were incubated at room temperature for 30 min, washed in 1% acetic acid, and allowed to dry. The dye was solubilized by adding 10 mM Tris base solution (pH 10.5, 200 μL) and incubating at room temperature for 30 min Plates were read at λ=510 nm. IC50 values were determined from three or more independent experiments using TableCurve (San Jose, Calif.).
(§3) In a 96-well plate, compounds were pre-added as DMSO stocks (1% final) in triplicate to achieve final concentrations of 1 nM to 10 μM on a half log scale. DMSO and cell-free wells served as the live and dead control, respectively. Suspension cells (U-937, CEM, CA46, Daudi, HL-60, and Jurkat; 10,000 cells/well) cells were distributed in 100 μL media to the compound-containing plate. After 48 h, cell viability was assessed by adding 20 μL of a PMS/MTS solution (A. H. Cory, T. C. Owen, J. A. Barltrop, J. G. Cory, Cancer Commun., 1991, 3, 207) to each well, allowing the dye to develop at 37° C. until the live control had processed MTS, and reading the absorbance at λ=490 nm. IC50 values were determined from three or more independent experiments using TableCurve (San Jose, Calif.).

In a further data set the test system is CEM. Briefly: 48-hour IC50 by MTS, CEM acute lymphoblastic leukemia cells. The data set is classed as cell-based, human. As to the method:
as §1, §2

The next data set has as its system blood cancer cells. Briefly: Activity against human blood cancer cell lines. The data set is classed as cell-based. As to the method: Based on the surprising and exceptional potency of (−)-agelastatins A (1) and D (4) against U-937 cells relative to the other cell lines tested, five additional blood cancer cell lines were tested for their sensitivity to the agelastatin alkaloids. These cell lines spanned a variety of cancer types (CEM, acute lymphoblastic leukemia; Jurkat, acute T-cell leukemia; Daudi, Burkitt's lymphoma; HL-60, acute promyelocytic leukemia; CA46, Burkitt's lymphoma). After a 48-hour incubation, the ability of (−)-agelastatins A-F (1-6) to induce cell death was evaluated. […] The same trends in potency observed for the various agelastatins with the general cell panel (Table 3) were also observed.
as §3, with “Suspension cells (U-937, CEM, CA46, Daudi, HL-60, and Jurkat; 10,000 cells/well) cells were distributed in 100 μL media to the compound-containing plate.” left out

Consider `CN1C(=O)N[C@H]2[C@@H]3NC(=O)c4ccc(Br)n4[C@@H]3C[C@]21O` [(−)-1, (−)-agelastatin A], for which the “nonspecific hemolysis of red blood cells” value with Human Erythrocytes (compounds at 333 μM) is reported as “none”. Also, the “concentration without affecting normal red blood cells” value in the data set on Human Erythrocytes was more than 333 µM. Further, the IC50 in the data set on HL-60 is 138 ± 66 nM; in the data set on Daudi, 20 ± 3 nM; in the data set with CEM, 20 ± 2 nM; in the data set with blood cancer cells (range over blood cancer cell lines, read-out: potency against blood cancer cells), 20 to 190 nM. The “activity (ability to induce cell death) in words” value in data set [1] is “highest potency in all cell lines tested”. Also, in the data set with blood cancer cells (CEM, Jurkat, Daudi, HL-60, CA46, 48-hour incubation), the “sensitivity of five additional blood cancer cell lines, in words” value is on record as “remarkable sensitivity”.

These data come from patent publication US9962383B2, “Compounds, compositions and methods of agelastatin alkaloids” (Massachusetts Institute of Technology, priority 2013, dated 2018).
